Where “and” joins values, the source holds several entries; their conditions need not be identical. Equal entries are not always repeated. Inconclusive results and toxic doses are left out.
System: P388 leukemia ip, CD2F1 mice, survival T/C
Test: NCI In Vivo Anticancer Drug Screen. Data for tumor model P388 Leukemia (intraperitoneal) in CD2F1 (CDF1) mice
Settings: endpoint: median survival time, higher = longer survival
Outline: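 Mice carrying the transplanted tumor received test compound or vehicle. Survival was recorded in each group, and the value is the treated-group measurement divided by that of the vehicle-treated control group.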

[1] = dose: 50.0 mg/kg/injection, schedule: Q01DX009 (ip), vehicle: saline with Tween-80
[2] = dose: 100.0 mg/kg/injection, schedule: Q01DX009 (ip), vehicle: saline with Tween-80
[3] = dose: 200.0 mg/kg/injection, schedule: Q01DX009 (ip), vehicle: saline with Tween-80
[4] = dose: 60.0 mg/kg/injection, schedule: Q01DX005 (ip), vehicle: saline
[5] = dose: 120.0 mg/kg/injection, schedule: Q01DX005 (ip), vehicle: saline
[6] = dose: 240.0 mg/kg/injection, schedule: Q01DX005 (ip), vehicle: saline
[7] = dose: 25.0 mg/kg/injection, schedule: Q01DX005 (ip), vehicle: Klucel (hydroxypropylcellulose) (HPC)
[8] = dose: 50.0 mg/kg/injection, schedule: Q01DX005 (ip), vehicle: Klucel (hydroxypropylcellulose) (HPC)
[9] = dose: 50.0 mg/kg/injection, schedule: Q01DX005 (ip), vehicle: saline with Tween-80
[10] = dose: 200.0 mg/kg/injection, schedule: Q01DX005 (ip), vehicle: saline with Tween-80
[11] = dose: 50.0 mg/kg/injection, schedule: Q01DX009 (ip), vehicle: Klucel (hydroxypropylcellulose) (HPC)
[12] = dose: 100.0 mg/kg/injection, schedule: Q01DX009 (ip), vehicle: Klucel (hydroxypropylcellulose) (HPC)
[13] = dose: 200.0 mg/kg/injection, schedule: Q01DX009 (ip), vehicle: Klucel (hydroxypropylcellulose) (HPC)

C=C(C)C(=NC(C)(C)C)Nc1ccccc1Cl
T/C (dose: 25.0 mg/kg/injection, schedule: Q01DX009 (ip), vehicle: saline with Tween-80): 101 % of control and 90 % of control
T/C [1]: 100 % of control and 119 % of control and 93 % of control
T/C [2]: 111 % of control and 115 % of control and 90 % of control
T/C [3]: 115 % of control and 98 % of control

COC(=O)C1CCC2C(C1)OC1(CC(OC(=O)/C=C\c3ccccc3)C(C)CO1)C2(O)CO (stereo not given)
T/C (dose: 5.0 mg/kg/injection, schedule: Q01DX009 (ip), vehicle: saline + alcohol): 98 % of control
T/C (dose: 10.0 mg/kg/injection, schedule: Q01DX009 (ip), vehicle: saline + alcohol): 103 % of control
T/C (dose: 20.0 mg/kg/injection, schedule: Q01DX009 (ip), vehicle: saline + alcohol): 105 % of control
T/C (dose: 40.0 mg/kg/injection, schedule: Q01DX009 (ip), vehicle: saline + alcohol): 105 % of control

SCc1ccccc1CS
T/C [1]: 110 % of control and 112 % of control and 114 % of control
T/C [2]: 110 % of control and 114 % of control and 121 % of control
T/C [3]: 107 % of control

OC[C@H]1N[C@H](CO)[C@@H](O)[C@H]1O
T/C [4]: 100 % of control
T/C [5]: 99 % of control
T/C [6]: 103 % of control

c1ccc2cc(SCCCN3CCOCC3)ccc2c1
T/C (dose: 50.0 mg/kg/injection, schedule: Q01DX009 (ip), vehicle: saline sonified): 100 % of control
T/C (dose: 100.0 mg/kg/injection, schedule: Q01DX009 (ip), vehicle: saline sonified): 104 % of control
T/C (dose: 200.0 mg/kg/injection, schedule: Q01DX009 (ip), vehicle: saline sonified): 100 % of control

COc1cccc2c1C(=O)c1c(O)c3c(c(O)c1C2=O)CC(O)(/C(C)=N/NC(=S)c1ccccc1)CC3OC1CC(N)C(O)C(C)O1 (stereo not given)
T/C (dose: 3.13 mg/kg/injection, schedule: Q01DX009 (ip), vehicle: other): 88 % of control
T/C (dose: 6.25 mg/kg/injection, schedule: Q01DX009 (ip), vehicle: other): 96 % of control
T/C (dose: 6.25 mg/kg/injection, schedule: Q04DX003 (ip), vehicle: saline): 154 % of control
T/C (dose: 12.5 mg/kg/injection, schedule: Q01DX009 (ip), vehicle: other): 103 % of control
T/C (dose: 12.5 mg/kg/injection, schedule: Q04DX003 (ip), vehicle: saline): 159 % of control
T/C (dose: 25.0 mg/kg/injection, schedule: Q01DX009 (ip), vehicle: other): 88 % of control
T/C (dose: 25.0 mg/kg/injection, schedule: Q04DX003 (ip), vehicle: saline): 166 % of control

Cc1cccc(C(C#N)C(=O)CCCC(=O)Nc2ccccc2[N+](=O)[O-])c1 (stereo not given)
T/C (dose: 60.0 mg/kg/injection, schedule: Q01DX005 (ip), vehicle: saline with Tween-80): 98 % of control
T/C (dose: 120.0 mg/kg/injection, schedule: Q01DX005 (ip), vehicle: saline with Tween-80): 100 % of control
T/C (dose: 240.0 mg/kg/injection, schedule: Q01DX005 (ip), vehicle: saline with Tween-80): 94 % of control

CCCCCCCCCCCCNC(=O)c1ccc[n+](Cc2ccc(Cl)c(Cl)c2)c1
T/C (dose: 3.13 mg/kg/injection, schedule: Q01DX009 (ip), vehicle: saline with Tween-80): 100 % of control
T/C (dose: 6.25 mg/kg/injection, schedule: Q01DX009 (ip), vehicle: saline with Tween-80): 95 % of control
T/C (dose: 12.5 mg/kg/injection, schedule: Q01DX009 (ip), vehicle: saline with Tween-80): 100 % of control

COc1c2occc2c(N=Cc2ccccn2)c2ccc(=O)oc12
T/C (dose: 6.25 mg/kg/injection, schedule: Q01DX005 (ip), vehicle: Klucel (hydroxypropylcellulose) (HPC)): 97 % of control
T/C (dose: 12.5 mg/kg/injection, schedule: Q01DX005 (ip), vehicle: Klucel (hydroxypropylcellulose) (HPC)): 97 % of control
T/C [7]: 95 % of control
T/C [8]: 90 % of control

O=P(N1CC1)(N1CC1)N1CC1
T/C (dose: 3.0 mg/kg/injection, schedule: Q01DX009 (ip), vehicle: saline): 216 % of control

CCOc1c(N=Nc2ccc(OC)cc2)c(-c2ccccc2)nn1C(N)=S
T/C [9]: 100 % of control
T/C (dose: 100.0 mg/kg/injection, schedule: Q01DX005 (ip), vehicle: saline with Tween-80): 100 % of control
T/C [10]: 102 % of control

O=NNc1ccc2cccnc2n1
T/C (dose: 3.12 mg/kg/injection, schedule: Q01DX009 (ip), vehicle: water): 99 % of control and 115 % of control
T/C (dose: 6.25 mg/kg/injection, schedule: Q01DX009 (ip), vehicle: water): 116 % of control and 123 % of control
T/C (dose: 25.0 mg/kg/injection, schedule: Q01DX009 (ip), vehicle: water): 150 % of control
T/C (dose: 50.0 mg/kg/injection, schedule: Q01DX009 (ip), vehicle: water): 187 % of control and 206 % of control

COC(=O)c1nc(=S)[nH]c(C(=O)OC)c1C(=O)c1ccccn1
T/C (dose: 60.0 mg/kg/injection, schedule: Q01DX005 (ip), vehicle: Klucel + Tween-80): 105 % of control
T/C (dose: 120.0 mg/kg/injection, schedule: Q01DX005 (ip), vehicle: Klucel + Tween-80): 95 % of control
T/C (dose: 240.0 mg/kg/injection, schedule: Q01DX005 (ip), vehicle: Klucel + Tween-80): 95 % of control

CC1CN2C(=O)NC(=O)C1(c1ccccc1)C2=O (stereo not given)
T/C [11]: 100 % of control
T/C [12]: 93 % of control
T/C [13]: 97 % of control

c1ccc2c(c1)ccc1c(NCCCCCCNc3c4ccccc4nc4c3ccc3ccccc34)c3ccccc3nc12
T/C [11]: 93 % of control
T/C [12]: 96 % of control
T/C [13]: 105 % of control

Cc1cc2c(cc1CC(=O)O)CC(=O)NC2
T/C (dose: 1.56 mg/kg/injection, schedule: Q01DX009 (ip), vehicle: distilled water + Tween-80): 109 % of control
T/C (dose: 3.13 mg/kg/injection, schedule: Q01DX009 (ip), vehicle: distilled water + Tween-80): 104 % of control
T/C (dose: 6.25 mg/kg/injection, schedule: Q01DX009 (ip), vehicle: distilled water + Tween-80): 123 % of control and 95 % of control
T/C (dose: 12.5 mg/kg/injection, schedule: Q01DX009 (ip), vehicle: distilled water + Tween-80): 101 % of control
T/C (dose: 25.0 mg/kg/injection, schedule: Q01DX009 (ip), vehicle: distilled water + Tween-80): 101 % of control and 96 % of control
T/C (dose: 50.0 mg/kg/injection, schedule: Q01DX009 (ip), vehicle: distilled water + Tween-80): 104 % of control and 96 % of control
T/C (dose: 100.0 mg/kg/injection, schedule: Q01DX009 (ip), vehicle: distilled water + Tween-80): 102 % of control and 95 % of control
T/C (dose: 200.0 mg/kg/injection, schedule: Q01DX009 (ip), vehicle: distilled water + Tween-80): 100 % of control
T/C (dose: 400.0 mg/kg/injection, schedule: Q01DX009 (ip), vehicle: distilled water + Tween-80): 92 % of control

C[PH+](C)C.C[PH+](C)C.[Au]
T/C (dose: 1.25 mg/kg/injection, schedule: Q01DX009 (ip), vehicle: saline): 112 % of control
T/C (dose: 2.5 mg/kg/injection, schedule: Q01DX009 (ip), vehicle: saline): 114 % of control
T/C (dose: 5.0 mg/kg/injection, schedule: Q01DX009 (ip), vehicle: saline): 116 % of control

Cn1ccnc1Sc1ccccn1
T/C [4]: 104 % of control
T/C [5]: 107 % of control
T/C [6]: 89 % of control

CNc1[nH]c(=O)ncc1N
T/C [7]: 98 % of control
T/C [8]: 98 % of control
T/C (dose: 100.0 mg/kg/injection, schedule: Q01DX005 (ip), vehicle: Klucel (hydroxypropylcellulose) (HPC)): 98 % of control

COc1ccccc1N1C(=S)N(c2cccc(Cl)c2Cl)C(=O)C(N=Nc2cccc(Cl)c2Cl)C1O (stereo not given)
T/C (dose: 100.0 mg/kg/injection, schedule: Q04DX003 (ip), vehicle: Klucel (hydroxypropylcellulose) (HPC)): 104 % of control
T/C (dose: 200.0 mg/kg/injection, schedule: Q04DX003 (ip), vehicle: Klucel (hydroxypropylcellulose) (HPC)): 104 % of control
T/C (dose: 400.0 mg/kg/injection, schedule: Q04DX003 (ip), vehicle: Klucel (hydroxypropylcellulose) (HPC)): 98 % of control

O=C1CN(c2cccc(Cl)c2)C(=O)CN1/N=C/c1cccnc1
T/C (dose: 25.0 mg/kg/injection, schedule: Q01DX005 (ip), vehicle: saline with Tween-80): 96 % of control
T/C [9]: 87 % of control and 91 % of control
T/C [10]: 87 % of control

— PubChem BioAssay AID330 (DTP/NCI, 2004)
